Assay results: patent US20230072860A1, “ISOXAZOLINE OXIME FORMATE COMPOUND, PREPARATION METHOD THEREFOR, HERBICIDAL COMPOSITION AND USE THEREOF” (QINGDAO KINGAGROOT CHEMICAL COMPOUND CO., LTD., priority 2020, published 2023)

How the values were obtained:
Type in all cases: in vivo
Abutilon theophrasti = assay: Experiment on weeding effect in post-emergence stage; conditions: dose 15 g a.i./ha, fresh weight control rate level
Method in brief: (§1)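 Herbicidal activity is judged on potted plants that receive a post-emergence spray at 500 to 15 g a.i./ha, with methyl oleate added as synergist. Effects are counted three weeks later in the greenhouse.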

Veronica didyma Tenore = assay: as above; conditions: dose 15 g a.i./ha, fresh weight control rate level
Method in brief: as §1

Amaranthus retroflexus = assay: as above; conditions: dose 15 g a.i./ha, fresh weight control rate level
Method in brief: as §1

Setaria viridis = assay: as above; conditions: dose 15 g a.i./ha, fresh weight control rate level
Method in brief: as §1

Galium aparine = assay: as above; conditions: dose 15 g a.i./ha, fresh weight control rate level
Method in brief: as §1

Digitaria sanguinalis = assay: as above; conditions: dose 15 g a.i./ha, fresh weight control rate level
Method in brief: as §1

Leptochloa chinensis = assay: as above; conditions: dose 15 g a.i./ha, fresh weight control rate level
Method in brief: as §1

Echinochloa crusgalli = assay: as above; conditions: dose 15 g a.i./ha, fresh weight control rate level
Method in brief: as §1

Eleusine indica = assay: as above; conditions: dose 15 g a.i./ha, fresh weight control rate level
Method in brief: as §1

[1] = test system: Echinochloa crusgalli, Scirpus juncoides, Bidens tripartita L. and Sagittaria trifolia; assay: Weed control effect evaluation in rice field; conditions: weeds collected from Heilongjiang Province of China
Description: Transplanted rice safety evaluation and weed control effect evaluation in rice field:
Rice field soil was loaded into a 1/1,000,000 ha pot. The seeds of Echinochloa crusgalli, Scirpus juncoides, and Bidens tripartita L. were sowed and gently covered with soil, then left to stand still in greenhouse in the state of 0.5-1 cm of water storage. The tuber of Sagittaria trifolia was planted in the next day or 2 days later. It was kept at 3-4 cm of water storage thereafter. The weeds were treated by dripping the WP or SC water diluents prepared according to the common preparation method of the compounds of the present invention with pipette homogeneously to achieve specified effective amount when Echinochloa crusgalli, Scirpus juncoides, and Bidens tripartita L. reached 0.5 leaf stage and Sagittaria trifolia reached the time point of primary leaf stage.
The fertility condition of Echinochloa crusgalli, Scirpus juncoides, Bidens tripartita L. and Sagittaria trifolia 14 days after the treatment of the compound of the invention and the fertility condition of rice 21 days after the treatment of the compound of the invention respectively with the naked eye. Evaluate the weed control effect with the above activity standard level. Many compounds show excellent activity and selectivity. […]

Structure (SMILES)	weeding effect in post-emergence stage, Abutilon theophrasti (level) (Abutilon theophrasti)	weeding effect in post-emergence stage, Veronica didyma Tenore (level) (Veronica didyma Tenore)	weeding effect in post-emergence stage, Amaranthus retroflexus (level) (Amaranthus retroflexus)	weeding effect in post-emergence stage, Setaria viridis (level) (Setaria viridis)	weeding effect in post-emergence stage, Galium aparine (level) (Galium aparine)	weeding effect in post-emergence stage, Digitaria sanguinalis (level) (Digitaria sanguinalis)	weeding effect in post-emergence stage, Leptochloa chinensis (level) (Leptochloa chinensis)	weeding effect in post-emergence stage, Echinochloa crusgalli (level) (Echinochloa crusgalli)	weeding effect in post-emergence stage, Eleusine indica (level) (Eleusine indica)	response of the test weeds to common doses [1]
CCOC(=O)C(C)=NOC(=O)C1(C)CC(c2cc(-n3c(=O)n(C)c(=S)n(C)c3=O)c(F)cc2Cl)=NO1 (stereo not shown) [Compound 123]	5 (Level 5: growth control rate is above 85%)	5 (Level 5: growth control rate is above 85%)	5 (Level 5: growth control rate is above 85%)	5 (Level 5: growth control rate is above 85%)	5 (Level 5: growth control rate is above 85%)	5 (Level 5: growth control rate is above 85%)	5 (Level 5: growth control rate is above 85%)	5 (Level 5: growth control rate is above 85%)	5 (Level 5: growth control rate is above 85%)	
C/C(=N/OC(=O)C1(C)CC(c2cc(-n3c(=O)n(C)c(=S)n(C)c3=O)c(F)cc2Cl)=NO1)c1ccccc1 (stereo not shown) [Compound 124]	5 (Level 5: growth control rate is above 85%)	5 (Level 5: growth control rate is above 85%)	5 (Level 5: growth control rate is above 85%)	5 (Level 5: growth control rate is above 85%)	5 (Level 5: growth control rate is above 85%)	5 (Level 5: growth control rate is above 85%)	5 (Level 5: growth control rate is above 85%)	5 (Level 5: growth control rate is above 85%)	5 (Level 5: growth control rate is above 85%)	
Cn1c(=S)n(C)c(=O)n(-c2cc(C3=NOC(C)(C(=O)ON=C(c4ccccc4)c4ccccc4)C3)c(Cl)cc2F)c1=O (stereo not shown) [Compound 140]	5 (Level 5: growth control rate is above 85%)	5 (Level 5: growth control rate is above 85%)	5 (Level 5: growth control rate is above 85%)	5 (Level 5: growth control rate is above 85%)	5 (Level 5: growth control rate is above 85%)	5 (Level 5: growth control rate is above 85%)	5 (Level 5: growth control rate is above 85%)	5 (Level 5: growth control rate is above 85%)	5 (Level 5: growth control rate is above 85%)	
Cn1c(=S)n(C)c(=O)n(-c2cc(C3=NOC(C)(C(=O)ON=C4CCCC4)C3)c(Cl)cc2F)c1=O (stereo not shown) [Compound 146]	5 (Level 5: growth control rate is above 85%)	5 (Level 5: growth control rate is above 85%)	5 (Level 5: growth control rate is above 85%)	5 (Level 5: growth control rate is above 85%)	5 (Level 5: growth control rate is above 85%)	5 (Level 5: growth control rate is above 85%)	5 (Level 5: growth control rate is above 85%)	5 (Level 5: growth control rate is above 85%)	5 (Level 5: growth control rate is above 85%)	
CC(C)=NOC(=O)C1(C)CC(c2cc(-n3c(=O)cc(C(F)(F)F)n(C)c3=O)c(F)cc2Cl)=NO1 (stereo not shown) [Compound 160]	5 (Level 5: growth control rate is above 85%)	5 (Level 5: growth control rate is above 85%)	5 (Level 5: growth control rate is above 85%)	5 (Level 5: growth control rate is above 85%)	5 (Level 5: growth control rate is above 85%)	5 (Level 5: growth control rate is above 85%)	5 (Level 5: growth control rate is above 85%)	5 (Level 5: growth control rate is above 85%)	5 (Level 5: growth control rate is above 85%)	
CC(C)=NOC(=O)C1(C)CC(c2nc(-n3c(=O)cc(C(F)(F)F)n(C)c3=O)c(F)cc2Cl)=NO1 (stereo not shown) [Compound 170]	5 (Level 5: growth control rate is above 85%)	5 (Level 5: growth control rate is above 85%)	5 (Level 5: growth control rate is above 85%)	5 (Level 5: growth control rate is above 85%)	5 (Level 5: growth control rate is above 85%)	5 (Level 5: growth control rate is above 85%)	5 (Level 5: growth control rate is above 85%)	5 (Level 5: growth control rate is above 85%)	5 (Level 5: growth control rate is above 85%)	
CC(C)=NOC(=O)C1(C)CC(c2cc(-n3c(=S)cc(C(F)(F)F)n(C)c3=O)c(F)cc2Cl)=NO1 (stereo not shown) [Compound 197]	5 (Level 5: growth control rate is above 85%)	5 (Level 5: growth control rate is above 85%)	5 (Level 5: growth control rate is above 85%)	5 (Level 5: growth control rate is above 85%)	5 (Level 5: growth control rate is above 85%)	5 (Level 5: growth control rate is above 85%)	5 (Level 5: growth control rate is above 85%)	5 (Level 5: growth control rate is above 85%)	5 (Level 5: growth control rate is above 85%)	
CC(C)=NOC(=O)C1(C)CC(c2cc(-n3c(=O)cc(C(F)(F)F)n(C)c3=S)c(F)cc2Cl)=NO1 (stereo not shown) [Compound 218]	5 (Level 5: growth control rate is above 85%)	5 (Level 5: growth control rate is above 85%)	5 (Level 5: growth control rate is above 85%)	5 (Level 5: growth control rate is above 85%)	5 (Level 5: growth control rate is above 85%)	5 (Level 5: growth control rate is above 85%)	5 (Level 5: growth control rate is above 85%)	5 (Level 5: growth control rate is above 85%)	5 (Level 5: growth control rate is above 85%)	
CCOC(=O)c1cnn(C)c1S(=O)(=O)NC(=O)Nc1nc(OC)cc(OC)n1 [Pyrazosulfuron-ethyl]										resistant
